# According to patent publication US11491169B2, “Remdesivir treatment methods” (Gilead Sciences, Inc., priority 2020, dated 2022):
# Like-named read-outs stand apart in the source and are kept apart here.
# Tests used:
# [1] = system: NHBE cultures
# [2] = system: A549-hACE2 cells; details: for Mean RDV-TP: human, 1 μM
# [3] = system: HEp-2 cells
# [4] = system: SARS-CoV-2; test: SARS-CoV-2 Nluc antiviral assay in A549-hACE2 cells; format: cell-based; details: for Nluc signal (SARS-CoV-2 replication): 10 μM of CQ or HCQ alone
# [5] = doses recommended under the former EUA guidance for COVID-19; cited from earlier work
# [6] = system: HEp-2 cells; test: Formula Ia triphosphate (RDV-TP) formation in HEp-2 cells, LC-MS/MS; details: 2 h
# [7] = system: respiratory syncytial virus (RSV); test: microbe, parasite or virus in culture; format: cell-based; details: human respiratory syncytial virus, HEp-2, read-out: Formula Ia RSV EC50, HEp2 cells
# Experimental: The cells were then infected with RSV A2 virus diluted in DMEM medium+GlutaMAX at an MOI=4 and incubated for 4 days at 37° C. and 5% CO2. The final volume in each well was 200 μL. Uninfected and untreated wells were included as controls for 100% cell viability. Following the incubation, 100 μL of culture supernatant was removed from each well and replaced with 100 μL of CellTiter-Glo reagent (Promega). The plates were then rocked for 2 minutes followed by a 10-minute incubation at 25° C. Cell viability was then assessed by measuring luminescence signal using and Envision plate reader. Values were normalized to the uninfected and infected DMSO controls (as 100% and 0% […], respectively) and data was fit using non-linear regression analysis with the XLfit software.
# [8] = system: A549-hACE2 cells; details: Formula Ia and HCQ combination concentrations analyzed (data not shown)
# [9] = Severe acute respiratory syndrome coronavirus 2, read-out: SARS-CoV-2 Nluc EC50, A549-hACE2 cells, single agent + DMSO
smiles,measurement,setting,value
"CCN(CC)CCCC(C)Nc1ccnc2cc(Cl)ccc12 (centres unmarked) [CQ, N′-(7-chloroquinolin-4-yl)-N,N-diethyl-pentane-1,4-diamine, reference compound]",Effect on Formula Ia-TP levels,[1],not statistically significant
same,Effect on Formula Ia-TP levels,[2],did not significantly reduce
same,Effect on production of Formula Ia-TP,[2],did significantly lower
same,Effect on formation of intracellular Formula Ia-TP,[3],dose-dependent reduction
same,Nluc signal (SARS-CoV-2 replication),[4]; A549-hACE2 cells,fully suppressed
same,EC50,[4]; [9],~451 nM
same,Average systemic exposures,[5],610 to 760 nM
"CCC(CC)COC(=O)[C@H](C)N[P@](=O)(OC[C@H]1O[C@@](C#N)(c2ccc3c(N)ncnn23)[C@H](O)[C@@H]1O)Oc1ccccc1 [Formula Ia, (S)-2-ethylbutyl 2-(((S)-(((2R,3S,4R,5R)-5-(4-aminopyn-olo[2,1-f][1,2,4]triazin-7-yl)-5-cyano-3,4-dihydroxytetrahydrofuran-2-yl)methoxy)(phenoxy)phosphoryl)amino)propanoate]",Mean RDV-TP,[6]; 1 μM Formula Ia + 1 μM CQ,BLQ
same,Mean RDV-TP,[6]; 1 μM Formula Ia + 1 μM HCQ,BLQ
same,Mean RDV-TP,[6]; 1 μM Formula Ia + 10 μM CQ,BLQ
same,Mean RDV-TP,[6]; 1 μM Formula Ia + 10 μM HCQ,BLQ
same,Mean RDV-TP,[6]; 1 μM Formula Ia alone,BLQ
same,Mean RDV-TP,[2]; 2 h,3.6 ± 0.2 pmol/million cells
same,Mean RDV-TP,[2]; 24 h,6.8 ± 1.3 pmol/million cells
same,Mean RDV-TP,[2]; 48 h,3.0 ± 0.5 pmol/million cells
same,EC50,[7]; chloroquine 0 nM,49.5 ± 13.1 nM
same,EC50,[7]; chloroquine 10 nM,58.4 ± 12.8 nM
same,EC50,[7]; chloroquine 40 nM,72.1 ± 24.8 nM
same,EC50,[7]; chloroquine 160 nM,99.6 ± 30.3 nM
same,EC50,[7]; chloroquine 640 nM,138 ± 33.8 nM
same,EC50,[7]; chloroquine 2560 nM,209 ± 18.2 nM
same,EC50,"[4]; read-out: SARS-CoV-2 Nluc EC50, A549-hACE2 cells, + 10 nm HCQ",63.6 nM
same,EC50,"[4]; read-out: SARS-CoV-2 Nluc EC50, A549-hACE2 cells, + 40 nm HCQ",50.7 nM
same,EC50,"[4]; read-out: SARS-CoV-2 Nluc EC50, A549-hACE2 cells, + 640 nm CQ",46 nM
same,EC50,"[4]; read-out: SARS-CoV-2 Nluc EC50, A549-hACE2 cells, + 2500 nm HCQ",63 nM
"CCN(CCO)CCCC(C)Nc1ccnc2cc(Cl)ccc12 (centres unmarked) [HCQ, 2-[{4-[(7-chloroquinolin-4-yl)amino]pentyl}(ethyl)amino]ethanol, reference compound]",Cytotoxicity,[8],not observed
same,Nluc signal (SARS-CoV-2 replication),[4]; A549-hACE2 cells,fully suppressed
same,EC50,[4]; [9],~365 nM
same,Average systemic exposures,[5],approximately 1.7 μM
